Reference: US20220184220A1, “XYLOGLUCAN-CONTAINING PRODRUGS AND METHODS OF MANUFACTURE AND USE THEREOF” (priority 2019, published 2022)
Entries after “also recorded” stand apart in the source; their conditions may differ.

What was measured:
[1] = tested on: IL-1β, IL-6, IL-22, TNF-α; assay: Tissue cytokine detection by ELISA in cecal and colonic homogenates (Example 3); assay type: in vivo, mice; conditions: for decreasing pro-inflammatory cytokines (IL-1β and TNF-α) and increasing IL-22 in intestinal tissues: compared with uncaged drugs
Method: Cecal and colonic homogenate for each mouse was prepared using the tissues suspended in an immunoprecipitation buffer at a ratio of 1:5 (wt/vol, adapted from Burgos-Ramos E. et al. 2012. “Adipose tissue promotes a serum cytokine profile related to lower insulin sensitivity after chronic central leptin infusion”. PLoS One Vol 7(10): e46893) with the addition of 1% Protease Inhibitor Cocktail (Sigma Aldrich). Frozen tissue sections were immediately homogenized using a Tissue-Tearor® model 398 homogenizer (Biospec Products) and centrifuged (14 000×g for 30 min at 4° C.). Supernatants were collected and used immediately for cytokine profiling. Cecal and colonic cytokine concentrations were measured for each treatment group by enzyme-linked immunosorbent assay (ELISA). Cytokines included in the analysis were interleukin-1 beta (IL-1β); IL-6; IL-10; IL-22; and tumour necrosis factor alpha (TNF-α). All cytokines were quantified using mouse DuoSet ELISA Development kits according to the manufacturer's protocols (R&D Systems). ELISAs were performed using 96-well high-binding half area microplates (Greiner Bio-One), and the optical density of the reactions were determined at wavelength of 450 nm on a Synergy HT™ multi-detection microplate reader (BioTek Instruments Inc.) with Gen5™ analysis software (BioTek Instruments Inc.).

[2] = tested on: interleukin-12p70 (IL-12p70); assay: Protein markers of inflammation in colonic tissue (Example 7); assay type: in vivo; conditions: infected female mice; compared to uncaged PRED or DEXA
Method: (§1) Approval to conduct this project was obtained from the AAFC LeRDC Animal Care Committee (Animal Use Protocol 1911). […] The methods employed were essentially the same as those described in Example 3, except that the Citrobacter rodentium (CR) was administered to incite acute self-limiting colitis in mice prior to colonization with Bacteroides ovatus (BO). […] FIG. 20 provides a schematic illustrating the study design and timelines.
(§2) As in the study described in Example 3, there were gross histopathological differences in the distal colon tissue obtained from mice in the different treatment groups. Histological scoring of inflammation was performed by a board-certified pathologist blinded to treatment. […] Following CR infection, with no treatment, neutrophil infiltration was evident and the histological score was 10. […] Evidence of enhanced amelioration of protein markers of inflammation were also observed. […] IL-12p70 is a pro-inflammatory cytokine involved in cell-mediated immunity. For example, it is known as a T cell-stimulating factor, which can stimulate the growth and function of T cells. Moreover, it stimulates the production of interferon-gamma (IFN-γ) and tumor necrosis factor-alpha (TNF-α) from T cells and natural killer (NK) cells, and reduces IL-4 mediated suppression of IFN-γ.

[3] = tested on: acute self-limiting colitis in mice; assay: Histological scoring of inflammation, C. rodentium colitis in germ-free mice colonized with B. ovatus (Example 3); assay type: in vivo; conditions: for Crypt Height / Epithelia Hyperplasia / Epithelial Injury / Fibrosis / Globlet cell / Inflamm / Mitotic Act.: gavage 3 days, prednisolone forms 1 mg/kg/day, dexamethasone forms 0.6 mg/kg/day; for Crypt Height / Epithelia Hyperplasia / Epithelial Injury / Fibrosis / Globlet cell / Inflamm / Mitotic Act. / Total Score: n=2; for Total Score: sum of each scoring category; for acute inflammation in the proximal and distal colon, histopathologically / efficacy compared with the uncaged drug: gnotobiotic mice colonized by B. ovatus; for efficacy compared with the uncaged drug: Example 3 conclusions
[4] = tested on: acute self-limiting colitis in mice; assay: Histological scoring of inflammation, C. rodentium colitis in mice with normal enteric microbiota (Example 7); assay type: in vivo; conditions: for histological score, distal colon: CR+/BO+ mice, prednisolone forms 1 mg/kg, dexamethasone forms 1.5 mg/kg (equivalent), one day following steroid treatment; for efficacy compared with the uncaged drug, histologically: Example 7 conclusions; for colitis in the colon, histopathologically: colitis incited by Citrobacter rodentium, mice colonized by Bacteroides ovatus
Method: as §1, §2

[5] = tested on: acute self-limiting colitis in mice; assay: Gross visual observations of the murine abdomen (Example 3); assay type: in vivo; conditions: necropsy after 3 days of steroid gavage
From the text: Under isoflurane anesthesia, mice were terminally bled by cardiac puncture and then humanely euthanized by cervical dislocation. All collected blood was separated into serum that was dedicated for steroid detection and optimization of steroid detection procedures. Following euthanasia, a midline laparotomy was made and gross observations of the abdominal regions were photo-documented. Approximately 1 cm sections of the cecum, and the most proximal and distal portions of the colon were divided for histological examination. Cecal and colonic tissues were flash frozen in liquid nitrogen for future immunological protein quantification. Digesta extracted from the colon was stored at −80° C. for future steroid detection, and fresh feces from the cages were used to enumerate Bacteroides ovatus and Citrobacter rodentium by microbiological techniques on the same day as the necropsy.

[6] = molecular target: Bacteroides ovatus GH5 endo-xyloglucanase (Bacteroides ovatus, UniProt A7LXT7); assay: Hydrolysis of glyco-caged prodrugs by BoGH5A, copper-bicinchoninic acid (BCA) reducing-sugar assay; assay type: biochemical; conditions: sodium citrate buffer, pH 6.5
Bacteroides ovatus GH5 endo-xyloglucanase, sequence (A7LXT7 33-502): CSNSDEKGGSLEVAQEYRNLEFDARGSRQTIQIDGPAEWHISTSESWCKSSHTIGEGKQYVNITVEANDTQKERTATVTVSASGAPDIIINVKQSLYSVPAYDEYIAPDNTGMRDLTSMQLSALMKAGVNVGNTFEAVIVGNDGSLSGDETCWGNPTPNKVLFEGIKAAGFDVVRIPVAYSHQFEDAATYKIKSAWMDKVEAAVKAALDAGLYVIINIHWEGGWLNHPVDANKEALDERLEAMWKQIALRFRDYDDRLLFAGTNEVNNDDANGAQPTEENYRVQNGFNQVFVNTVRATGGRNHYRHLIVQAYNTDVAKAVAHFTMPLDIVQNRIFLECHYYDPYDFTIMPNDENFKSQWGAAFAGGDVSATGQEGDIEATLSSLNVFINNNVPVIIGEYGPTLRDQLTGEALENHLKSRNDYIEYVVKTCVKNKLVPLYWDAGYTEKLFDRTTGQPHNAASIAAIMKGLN
From the text: DOI:10.1007/978-1-4939-6899-2 1.

[7] = cecal tissue homogenates, compared to the free steroids, n=2

Row | SMILES | Crypt Height ([3]; cecal tissue) | Epithelia Hyperplasia ([3]; cecal tissue) | Epithelial Injury ([3]; cecal tissue) | Fibrosis ([3]; cecal tissue) | Globlet cell ([3]; cecal tissue) | Inflamm ([3]; cecal tissue) | Mitotic Act. ([3]; cecal tissue) | Total Score ([3]; cecal tissue) | Crypt Height ([3]; distal colon) | Epithelia Hyperplasia ([3]; distal colon) | Epithelial Injury ([3]; distal colon) | Fibrosis ([3]; distal colon) | Globlet cell ([3]; distal colon) | Inflamm ([3]; distal colon) | Mitotic Act. ([3]; distal colon) | Total Score ([3]; distal colon) | Crypt Height ([3]; proximal colon) | Epithelia Hyperplasia ([3]; proximal colon) | Epithelial Injury ([3]; proximal colon) | Fibrosis ([3]; proximal colon) | other results
1 | C[C@]12C=CC(=O)C=C1CC[C@@H]1[C@@H]2[C@@H](O)C[C@@]2(C)[C@H]1CC[C@]2(O)C(=O)CO[C@@H]1OC(CO)[C@@H](O[C@@H]2OC(CO[C@H]3OC[C@@H](O)C(O)C3O)[C@@H](O[C@@H]3OC(CO[C@H]4OC[C@@H](O)C(O)C4O)[C@@H](O[C@@H]4OC(CO[C@H]5OC[C@@H](O)C(O)C5O)[C@@H](O)C(O)C4O)C(O)C3O)C(O)C2O)C(O)C1O (stereo partly drawn) [XXXG-PRED, XXXG-β-O-prednisolone] | 2 | 2 | 1.5 | 0.5 | 0 | 2.5 | 1.5 | 10 | 1.5 | 1.5 | 1 | 0 | 0.5 | 1 | 1 | 6.5 | 2 | 3 | 2.5 | 0 | IL-1β concentration in cecal tissue [1, 7]: decreased; TNF-α concentration in cecal tissue [1, 7]: decreased; IL-22 concentration in cecal tissue ([1]; cecal tissue homogenates, n=2): increased; decreasing pro-inflammatory cytokines (IL-1β and TNF-α) and increasing IL-22 in intestinal tissues [1]: more effective than the uncaged drugs; quantities of interleukin-12p70 (IL-12p70) protein in colonic tissue [2]: significantly lower; caged drugs compared in the distal colon ([3]; distal colon): equal scores; acute inflammation in the proximal and distal colon, histopathologically [3]: ameliorate acute inflammation; efficacy compared with the uncaged drug [3]: greater efficacy than uncaged prednisolone; injury and inflammation intensities, distal colon ([3]; histologic examination): lessened the injury and inflammation intensities; Globlet cell ([3]; proximal colon): 0.5; Inflamm ([3]; proximal colon): 2; Mitotic Act. ([3]; proximal colon): 1.5; Total Score ([3]; proximal colon): 11.5; histological score, distal colon [4]: 4; efficacy compared with the uncaged drug, histologically [4]: greater efficacy than uncaged prednisolone histologically; colitis in the colon, histopathologically [4]: ameliorate colitis; blood present in ceca (gross observation) [5]: more blood present in ceca than dexamethasone treatment; also recorded: more blood in cecal area; hydrolysis of the prodrug (release of the active drug) [6]: demonstrated
2 | C[C@@H]1C[C@H]2[C@@H]3CCC4=CC(=O)C=C[C@]4(C)[C@@]3(F)[C@@H](O)C[C@]2(C)[C@@]1(O)C(=O)CO [dexamethasone, reference compound] | 1 | 1 | 0.5 | 0 | 0 | 2 | 1.5 | 6 | 2 | 1.5 | 1 | 1 | 1.5 | 1.5 | 1 | 9.5 | 3 | 3 | 2 | 0 | Globlet cell ([3]; proximal colon): 0; Inflamm ([3]; proximal colon): 1.5; Mitotic Act. ([3]; proximal colon): 1.5; Total Score ([3]; proximal colon): 11; histological score, distal colon [4]: 17
3 | C[C@@H]1C[C@H]2[C@@H]3CCC4=CC(=O)C=C[C@]4(C)[C@@]3(F)[C@@H](O)C[C@]2(C)[C@@]1(O)C(=O)CO[C@@H]1OC(CO)[C@@H](O[C@@H]2OC(CO[C@H]3OC[C@@H](O)C(O)C3O)[C@@H](O[C@@H]3OC(CO[C@H]4OC[C@@H](O)C(O)C4O)[C@@H](O[C@@H]4OC(CO[C@H]5OC[C@@H](O)C(O)C5O)[C@@H](O)C(O)C4O)C(O)C3O)C(O)C2O)C(O)C1O (stereo partly drawn) [XXXG-DEXA, XXXG-β-O-dexamethasone] | 1 | 1 | 1 | 1.5 | 0.5 | 2 | 1.5 | 8.5 | 1.5 | 1.5 | 1 | 0 | 0 | 1 | 1 | 6 | 2 | 1.5 | 2 | 0 | IL-1β concentration in cecal tissue [1, 7]: decreased; TNF-α concentration in cecal tissue [1, 7]: decreased; decrease of IL-6 concentration in cecal tissue [1, 7]: more effective than XXXG-PRED; decreasing pro-inflammatory cytokines (IL-1β and TNF-α) and increasing IL-22 in intestinal tissues [1]: more effective than the uncaged drugs; quantities of interleukin-12p70 (IL-12p70) protein in colonic tissue [2]: significantly lower; amelioration of colitis in the cecum and proximal colon, caged drugs compared ([3]; colitis incited by Citrobacter rodentium): more effective than XXXG-PRED; caged drugs compared in the distal colon ([3]; distal colon): equal scores; acute inflammation in the proximal and distal colon, histopathologically [3]: ameliorate acute inflammation; efficacy compared with the uncaged drug [3]: greater efficacy than uncaged dexamethasone; injury and inflammation intensities, distal colon ([3]; histologic examination): lessened the injury and inflammation intensities; injury and inflammation intensity, ceca and proximal colon tissues ([3]; histologic examination): less injury and inflammation intensity than the other treatments; Globlet cell ([3]; proximal colon): 0; Inflamm ([3]; proximal colon): 1; Mitotic Act. ([3]; proximal colon): 1.5; Total Score ([3]; proximal colon): 8; histological score, distal colon [4]: 2; efficacy compared with the uncaged drug, histologically [4]: greater efficacy than uncaged dexamethasone histologically; colitis in the colon, histopathologically [4]: ameliorate colitis; cecal and colonic thickening (gross observation) [5]: less cecal and colonic thickening than uncaged dexamethasone; hydrolysis of the prodrug (release of the active drug) [6]: demonstrated
4 | COC(=O)c1cc(N)ccc1O[C@@H]1OC(CO)[C@@H](O[C@@H]2OC(CO[C@H]3OC[C@@H](O)C(O)C3O)[C@@H](O[C@@H]3OC(CO[C@H]4OC[C@@H](O)C(O)C4O)[C@@H](O[C@@H]4OC(CO[C@H]5OC[C@@H](O)C(O)C5O)[C@@H](O)C(O)C4O)C(O)C3O)C(O)C2O)C(O)C1O (stereo partly drawn) [XXXG-5ASAME, XXXG-β-O-mesalazineME] |  |  |  |  |  |  |  |  |  |  |  |  |  |  |  |  |  |  |  |  | hydrolysis of the prodrug (release of the active drug) [6]: demonstrated
